Assay results from patent US20250230193A1, “CYCLIC COMPOUND HAVING SELECTIVE KRAS INHIBITORY EFFECT ON HRAS AND NRAS” (CHUGAI SEIYAKU KABUSHIKI KAISHA, priority 2022, published 2025).
Where a SMILES comes first, the peptide text is derived from it. Bridges are numbered along the chain shown (N, C = ends). [ ]: non-standard residue; d: D form. The star is where a group is joined. hPhe(3-Cl-4-CF3) = N[C@@H](CCc1ccc(C(F)(F)F)c(Cl)c1)C(=O)O; NPrPhe(4-CF3) = CCCN[C@@H](Cc1ccc(C(F)(F)F)cc1)C(=O)O; NMeGly(cPent) = CN[C@H](C(=O)O)C1CCCC1; Pro(4,4-F2) = O=C(O)[C@@H]1CC(F)(F)CN1; NMeL = CN[C@@H](CC(C)C)C(=O)O; Morpholide = C1CN(*)CCO1; NMeA = CN[C@@H](C)C(=O)O; Aze = O=C(O)[C@@H]1CCN1; Ac4c = NC1(C(=O)O)CCC1; Sar = CNCC(=O)O

Legend:
[1] = biological target: GDP-bound NRAS wild-type protein (Homo sapiens, UniProt P01111); assay: Binding to NRAS by surface plasmon resonance (SPR), Single Cycle Kinetics; settings: for NRAS/KRAS (ratio of KD value with respect to GDP-bound NRAS wild-type protein to KD value with respect to KRAS): class symbols
[2] = biological target: GDP-bound HRAS wild-type protein (Homo sapiens, UniProt P01112); assay: Binding to HRAS by surface plasmon resonance (SPR), Single Cycle Kinetics; settings: for HRAS/KRAS (ratio of KD value with respect to GDP-bound HRAS wild-type protein to KD value with respect to KRAS): class symbols
[3] = SPR, GDP-bound NRAS wild-type vs GDP-bound KRAS wild-type
[4] = SPR, GDP-bound HRAS wild-type vs GDP-bound KRAS wild-type

Chain of GDP-bound NRAS wild-type protein (P01111 whole entry): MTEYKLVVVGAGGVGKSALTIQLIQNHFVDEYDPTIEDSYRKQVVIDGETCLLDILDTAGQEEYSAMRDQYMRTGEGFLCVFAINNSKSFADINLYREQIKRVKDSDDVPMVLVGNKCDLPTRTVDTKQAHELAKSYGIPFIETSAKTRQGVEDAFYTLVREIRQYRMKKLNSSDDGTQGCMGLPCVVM
Chain of GDP-bound HRAS wild-type protein (P01112 whole entry): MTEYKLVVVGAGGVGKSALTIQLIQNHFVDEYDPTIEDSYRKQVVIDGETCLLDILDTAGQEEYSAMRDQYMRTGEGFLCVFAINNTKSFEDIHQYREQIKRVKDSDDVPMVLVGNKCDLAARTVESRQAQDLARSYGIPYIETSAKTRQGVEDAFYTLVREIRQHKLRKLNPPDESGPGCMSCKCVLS

CCC[C@H]1C(=O)N[C@@H]([C@@H](C)CC)C(=O)N(C)CC(=O)N(C)[C@H]2C/C=C\CCN(C2=O)[C@@H](Cc2ccc(C(F)(F)F)cc2)C(=O)N(C)CC(=O)N[C@@H](CCc2ccc(Cl)c(OC)c2)C(=O)N2C[C@H](OCC)C[C@H]2C(=O)NC2(CC(C)(C)C2)C(=O)N(C)[C@@H](C2CCCC2)C(=O)N(C)[C@H](C(=O)N(C)C)CC(=O)N1C [PP2788]
NRAS/KRAS (ratio of KD value with respect to GDP-bound NRAS wild-type protein to KD value with respect to KRAS) ([1]; KD ratio NRAS/KRAS): A (a compound having 10 or more and less than 20 is denoted as A) | HRAS/KRAS (ratio of KD value with respect to GDP-bound HRAS wild-type protein to KD value with respect to KRAS) ([2]; KD ratio HRAS/KRAS): A (a compound having 10 or more and less than 20 is denoted as A)

CCCN1C(=O)[C@@H]2CCN2C(=O)[C@H](C)N(C)C(=O)[C@H]([C@@H](C)CC)NC(=O)[C@H](CC(C)C)N(C)C(=O)C[C@@H](C(=O)N2CCOCC2)NC(=O)[C@H](C2CCCC2)N(C)C(=O)C2(CCC2)NC(=O)[C@@H]2CC(F)(F)CN2C(=O)[C@H](CCc2ccc(C(F)(F)F)c(Cl)c2)NC(=O)CN(C)C(=O)[C@@H]1Cc1ccc(C(F)(F)F)cc1 [PP0346] ([NMeL]I[NMeA][Aze][NPrPhe(4-CF3)][Sar][hPhe(3-Cl-4-CF3)][Pro(4,4-F2)][Ac4c][NMeGly(cPent)]D-Morpholide; lactam N-11)
NRAS/KRAS (ratio of KD for GDP-bound NRAS wild-type to KD for KRAS) ([1]; KD ratio NRAS/KRAS, SPR): C (A compound having a KD ratio of 0.1 or more and less than 3 is denoted as C) | HRAS/KRAS (ratio of KD for GDP-bound HRAS wild-type to KD for KRAS) ([2]; KD ratio HRAS/KRAS, SPR): B (a compound having 3 or more and less than 10 is denoted as B)

CCO[C@@H]1C[C@H]2C(=O)N(C)C3(CCC3)C(=O)N(C)[C@@H](C(CC)CC)C(=O)N(C)[C@H](C(=O)N(C)C)CC(=O)N(C)[C@@H](COC)C(=O)N[C@@H]([C@@H](C)CC)C(=O)N(C)CC(=O)N(C)[C@H]3C/C=C\CCN(C3=O)[C@@H](CC3CCCCC3)C(=O)N(C)CC(=O)N[C@@H](CCc3ccc(C(F)(F)F)c(OC)c3)C(=O)N2C1 [PP2335]
NRAS/KRAS (ratio of KD value with respect to NRAS to KD value with respect to KRAS) [1, 3]: A (a compound having 10 or more and less than 20 is denoted as A) | HRAS/KRAS (ratio of KD value with respect to HRAS to KD value with respect to KRAS) [2, 4]: A (a compound having 10 or more and less than 20 is denoted as A)

CCO[C@@H]1C[C@H]2C(=O)NC3(CC(C)(C)C3)C(=O)N(C)[C@@H](CC(C)(C)C)C(=O)N(C)[C@H](C(=O)N(C)C)CC(=O)N(C)[C@@H](COC)C(=O)N[C@@H]([C@@H](C)CC)C(=O)N(C3CC3)CC(=O)N(C)[C@H]3C/C=C\CCN(C3=O)[C@@H](Cc3ccc(C(F)(F)F)cc3)C(=O)N(C)CC(=O)N[C@@H](CCc3ccc(Cl)c(Cl)c3)C(=O)N2C1 [PP2750]
NRAS/KRAS (ratio of KD value with respect to GDP-bound NRAS wild-type protein to KD value with respect to KRAS) ([1]; KD ratio NRAS/KRAS): AA (a compound having 20 or more is denoted as AA) | HRAS/KRAS (ratio of KD value with respect to GDP-bound HRAS wild-type protein to KD value with respect to KRAS) ([2]; KD ratio HRAS/KRAS): A (a compound having 10 or more and less than 20 is denoted as A)

CCO[C@@H]1C[C@H]2C(=O)NC3(CC(C)(C)C3)C(=O)N(C)[C@@H](C3CCCC3)C(=O)N(C)[C@H](C(=O)N(C)C)CC(=O)N(C)[C@@H](C(C)C)C(=O)N[C@@H]([C@@H](C)CC)C(=O)N(C)CC(=O)N(C)[C@H]3C/C=C\CCN(C3=O)[C@@H](Cc3ccc(C(F)(F)F)cc3)C(=O)N(C)CC(=O)N[C@@H](CCc3ccc(C(F)(F)F)c(OC)c3)C(=O)N2C1 [PP1979]
NRAS/KRAS (ratio of KD value for NRAS to KD value for KRAS) ([1]; KD ratio, GDP-bound NRAS wild-type vs GDP-bound KRAS wild-type, SPR): AA (a compound having 20 or more is denoted as AA) | HRAS/KRAS (ratio of KD value for HRAS to KD value for KRAS) ([2]; KD ratio, GDP-bound HRAS wild-type vs GDP-bound KRAS wild-type, SPR): A (a compound having 10 or more and less than 20 is denoted as A)

CCOC[C@H]1C(=O)N[C@@H]([C@@H](C)CC)C(=O)N(C)CC(=O)N(C)[C@H]2C/C=C\CCN(C2=O)[C@@H](CC2CCC(F)(F)CC2)C(=O)N(C)CC(=O)N[C@@H](CCc2cc(F)c(C(F)(F)F)c(F)c2)C(=O)N2C[C@H](OCC)C[C@H]2C(=O)NC2(CC(C)(C)C2)C(=O)N(C)[C@@H](C(CC)CC)C(=O)N(C)[C@H](C(=O)N(C)C)CC(=O)N1C [PP2450]
NRAS/KRAS (ratio of KD value with respect to NRAS to KD value with respect to KRAS) [1, 3]: A (a compound having 10 or more and less than 20 is denoted as A) | HRAS/KRAS (ratio of KD value with respect to HRAS to KD value with respect to KRAS) [2, 4]: A (a compound having 10 or more and less than 20 is denoted as A)

CC[C@H](C)[C@@H]1NC(=O)[C@H](CC2CC2)N(C)C(=O)C[C@@H](C(=O)N(C)CC)N(C)C(=O)[C@H](C2CCCC2)N(C)C(=O)C2(CCC2)NC(=O)[C@@H]2C[C@H](C)CN2C(=O)[C@H](CCc2cc(F)c(C(F)(F)F)c(F)c2)NC(=O)CN(C)C(=O)[C@H](Cc2ccc(C(F)(F)F)cc2)N2CC/C=C\C[C@@H](C2=O)N(C)C(=O)CN(C)C1=O [PP1537]
NRAS/KRAS (ratio of KD value for GDP-bound NRAS wild-type protein to KD value for KRAS) ([1]; SPR, KD ratio class): AA (a compound having 20 or more is denoted as AA) | HRAS/KRAS (ratio of KD value for GDP-bound HRAS wild-type protein to KD value for KRAS) ([2]; SPR, KD ratio class): A (a compound having 10 or more and less than 20 is denoted as A)
